Source: patent US20220039384A1, “SELECTIVE WEED CONTROL WITH HALAUXIFEN OR 4-AMINO-3-CHLORO-5-FLUORO-6-(4-CHLORO-2-FLUORO-3-METHOXYPHENYL) PYRIDINE-2-CARBOXYLIC ACID OR DERIVATIVES THEREOF IN VINEYARDS OR PERENNIAL CROPS” (Corteva Agriscience LLC, priority 2013, published 2022)

Tests used:
Format in all cases: in vivo
[1] = test system: CAPBP (Capsella bursa-pastoris, Shepherd's purse); test: Field trial, post-emergence directed dormant application (December), California vineyards: visual weed control
From the text: (§1) As used herein, selective pre- and post-emergence control of undesirable vegetation means preventing, reducing, killing, or otherwise adversely modifying the development of the undesirable vegetation in the presence of crop plants with limited adverse effect on the crop plants. For example, a broadleaf weed control of 80% (rated visually) with crop injury of less than or equal to 20% (rated visually) would constitute selective control. In some embodiments the adverse effect on crop plants is limited to less than 10% visually rated crop injury. Visual crop injury is a composite rating accounting for all phytotoxic effects including chlorosis, necrosis, growth inhibition, epinasty, delays in maturity and seed or fruit deformity. Visual weed control is a composite rating accounting for reductions in pest plant biomass and/or stand reduction.
(§2) Small plot research experiments were conducted in Fresno, Calif., USA to evaluate the pre-emergence and post-emergence herbicidal weed control activity and the vines crop tolerance to pre-emergence and post-emergence application of Compound I and Compound II to the weeds. Application water volume of 100 to 187 liters per hectare (L/ha) was used for all experiments. All treatments were applied with a standard small plot carbon dioxide (CO2) backpack sprayer. All treatments were tank-mixed with Crop Oil Concentrate (COC), a well known adjuvant, at 2.34 L/ha. Experimental emulsifiable concentrate (EC) formulations were used for Compounds I and II. The dimethylammonium (DMA) salt of glyphosate was used in all trials. Pindar® GT is a commercial formulation containing a pre-mix of penoxsulam+oxyfluorfen (10+476 grams of active ingredient per liter (g ai/L), respectively). Vine crop stage was dormant (no leaves on the vines during the winter) or early spring growth at the time of Compound I or Compound II application. Generally, weeds were not emerged for the pre-emergence treatments or were at the two to six-leaf stage at the time of the post-emergence herbicide application.
(§3) Tables 1, 2 and 6 provide weed control results from pre-emergence applications of Compounds I and/or II prior to weed emergence; Tables 4, 7 and 8 provide weed control results from post-emergence applications of Compounds I and/or II applied to actively growing weeds; Tables 3 and 5 provide vine response data from pre-emergence and post-emergence applications of Compound I respectively.

[2] = test system: AMSIN (Amsinckia intermedia, coast fiddleneck); test: as above
From the text: as §1, §2, §3

[3] = test system: IPOSS (Ipomoea spp, morningglory); test: as above
From the text: as §1, §2, §3

[4] = test system: CHEAL (Chenopodium album, common lambsquarters); test: as above
From the text: as §1, §2, §3

[5] = test system: AMARE (Amaranthus retroflexus, redroot pigweed); test: as above
From the text: as §1, §2, §3

[6] = test system: MEDPO (Medicago polymorpha, California burclover); test: Field trial, post-emergence directed spring application (March), California vineyards: visual weed control
From the text: as §1, §2, §3

[7] = test system: EROCI (Erodium cicutarium, redstem filaree); test: as above
From the text: as §1, §2, §3

[8] = test system: STEME (Stellaria media, common chickweed); test: as above
From the text: as §1, §2, §3

[9] = test system: MALPA (Malva parviflora, smallflower malva); test: as above
From the text: as §1, §2, §3

[10] = test system: CAPBP (Capsella bursa-pastoris, Shepherd's purse); test: Field trial, pre-emergence application (February), California vineyards: visual weed control
From the text: as §1, §2, §3

[11] = test system: AMSIN (Amsinckia intermedia, coast fiddleneck); test: as above
From the text: as §1, §2, §3

[12] = test system: CLNCM (Calandrinia ciliata, rock purslane); test: as above
From the text: as §1, §2, §3

[13] = test system: grapevines and perennial crops; test: Crop safety, general statement; conditions: post-emergence application rates of ≤20 g ae/ha; dormant application or spring application directed under the crops
From the text: (§4) Additional examples of application rates for Compound I as a pre-emergence and post-emergence application include 0.25 to 50 g ae/ha, 0.25 to 45 g ae/ha, 0.25 to 40 g ae/ha, 0.25 to 35 g ae/ha, 0.25 to 30 g ae/ha, 0.25 to 25 g ae/ha, 0.25 to 20 g ae/ha, 0.25 to 15 g ae/ha, 0.25 to 10 g ae/ha, 0.25 to 5 g ae/ha, 2.5 to 50 g ae/ha, 5 to 50 g ae/ha, 10 to 50 g ae/ha, 15 to 50 g ae/ha, 20 to 50 g ae/ha, 25 to 50 g ae/ha, 30 to 50 g ae/ha, 35 to 50 g ae/ha, 40 to 50 g ae/ha, 45 to 50 g ae/ha, 5 to 40 g ae/ha, 10 to 40 g ae/ha, 15 to 40 g ae/ha, 20 to 40 g ae/ha, 25 to 40 g ae/ha, 30 to 40 g ae/ha, 35 to 40 g ae/ha, 2.5 to 35 g ae/ha, 2.5 to 30 g ae/ha, 2.5 to 25 g ae/ha, 2.5 to 20 g ae/ha, 2.5 to 15 g ae/ha, 2.5 to 10 g ae/ha, 2.5 to 5 g ae/ha, 5 to 35 g ae/ha, 10 to 30 g ae/ha, 15 to 25 g ae/ha, and 15 to 20 g ae/ha. Further examples of application rates for Compound I as a pre-emergence and post-emergence application include 0.25 g ae/ha, 0.5 g ae/ha, 0.75 g ae/ha, 1 g ae/ha, 1.25 g ae/ha, 1.5 g ae/ha, 1.75 g ae/ha, 2 g ae/ha, 2.25 g ae/ha, 2.5 g ae/ha, 3 g ae/ha, 4 g ae/ha, 5 g ae/ha, 6 g ae/ha, 7 g ae/ha, 8 g ae/ha, 9 g ae/ha, 10 g ae/ha, 12 g ae/ha, 14 g ae/ha, 16 g ae/ha, 18 g ae/ha, 20 g ae/ha, 22 g ae/ha, 24 g ae/ha, 26 g ae/ha, 28 g ae/ha, 30 g ae/ha, 32 g ae/ha, 34 g ae/ha, 36 g ae/ha, 38 g ae/ha, 40 g ae/ha, 42 g ae/ha, 44 g ae/ha, 46 g ae/ha, 48 g ae/ha, and 50 g ae/ha. […]

[14] = test system: commercially relevant broadleaf and grass weeds; test: Pre- and post-emergence weed control, general statement; conditions: application rate of 2.5 to 40 g ae/ha; pre-emergence and post-emergence application
From the text: as §4

## COc1c(Cl)ccc(-c2nc(C(=O)OCc3ccccc3)c(Cl)c(N)c2F)c1F [II-Bn, benzyl 4-amino-3-chloro-5-fluoro-6-(4-chloro-2-fluoro-3-methoxyphenyl)pyridine-2-carboxylate]
[1]; 5 g ai/ha
  % Visual Control 57 DAA CAPBP: 100%
[1]; 10 g ai/ha
  % Visual Control 57 DAA CAPBP: 100%
[1]; 20 g ai/ha
  % Visual Control 57 DAA CAPBP: 100%
[1]; 40 g ai/ha
  % Visual Control 57 DAA CAPBP: 100%
[1]; 50 g ai/ha
  % Visual Control 57 DAA CAPBP: 100%
[2]; 5 g ai/ha
  % Visual Control 57 DAA AMSIN: 56.7%
[2]; 10 g ai/ha
  % Visual Control 57 DAA AMSIN: 96.7%
[2]; 20 g ai/ha
  % Visual Control 57 DAA AMSIN: 86.7%
[2]; 40 g ai/ha
  % Visual Control 57 DAA AMSIN: 100%
[2]; 50 g ai/ha
  % Visual Control 57 DAA AMSIN: 100%
[3]; 5 g ai/ha
  % Visual Control 57 DAA IPOSS: 55%
[3]; 10 g ai/ha
  % Visual Control 57 DAA IPOSS: 46.7%
[3]; 20 g ai/ha
  % Visual Control 57 DAA IPOSS: 66.7%
[3]; 40 g ai/ha
  % Visual Control 57 DAA IPOSS: 66.7%
[3]; 50 g ai/ha
  % Visual Control 57 DAA IPOSS: 97.3%
[4]; 5 g ai/ha
  % Visual Control 57 DAA CHEAL: 96.7%
[4]; 10 g ai/ha
  % Visual Control 57 DAA CHEAL: 100%
[4]; 20 g ai/ha
  % Visual Control 57 DAA CHEAL: 100%
[4]; 40 g ai/ha
  % Visual Control 57 DAA CHEAL: 100%
[4]; 50 g ai/ha
  % Visual Control 57 DAA CHEAL: 100%
[5]; 5 g ai/ha
  % Visual Control 57 DAA AMARE: 100%
[5]; 10 g ai/ha
  % Visual Control 57 DAA AMARE: 95%
[5]; 20 g ai/ha
  % Visual Control 57 DAA AMARE: 100%
[5]; 40 g ai/ha
  % Visual Control 57 DAA AMARE: 100%
[5]; 50 g ai/ha
  % Visual Control 57 DAA AMARE: 100%
[6]; 5 g ai/ha
  % Visual Control 59 DAA MEDPO: 100%
[6]; 10 g ai/ha
  % Visual Control 59 DAA MEDPO: 100%
[6]; 20 g ai/ha
  % Visual Control 59 DAA MEDPO: 100%
[6]; 40 g ai/ha
  % Visual Control 59 DAA MEDPO: 100%
[6]; 50 g ai/ha
  % Visual Control 59 DAA MEDPO: 100%
[7]; 5 g ai/ha
  % Visual Control 59 DAA EROCI: 81.7%
[7]; 10 g ai/ha
  % Visual Control 59 DAA EROCI: 85%
[7]; 20 g ai/ha
  % Visual Control 59 DAA EROCI: 85%
[7]; 40 g ai/ha
  % Visual Control 59 DAA EROCI: 94.3%
[7]; 50 g ai/ha
  % Visual Control 59 DAA EROCI: 96%
[8]; 5 g ai/ha
  % Visual Control 59 DAA STEME: 70%
[8]; 10 g ai/ha
  % Visual Control 59 DAA STEME: 75%
[8]; 20 g ai/ha
  % Visual Control 59 DAA STEME: 84.3%
[8]; 40 g ai/ha
  % Visual Control 59 DAA STEME: 94.3%
[8]; 50 g ai/ha
  % Visual Control 59 DAA STEME: 97.3%
[9]; 5 g ai/ha
  % Visual Control 59 DAA MALPA: 61.9%
[9]; 10 g ai/ha
  % Visual Control 59 DAA MALPA: 83.4%
[9]; 20 g ai/ha
  % Visual Control 59 DAA MALPA: 90%
[9]; 40 g ai/ha
  % Visual Control 59 DAA MALPA: 95%
[9]; 50 g ai/ha
  % Visual Control 59 DAA MALPA: 96.7%
[10]; 5 g ai/ha
  % Visual Control 48 DAA CAPBP: 0%
[10]; 10 g ai/ha
  % Visual Control 48 DAA CAPBP: 60%
[10]; 20 g ai/ha
  % Visual Control 48 DAA CAPBP: 76.7%
[10]; 40 g ai/ha
  % Visual Control 48 DAA CAPBP: 100%
[10]; 50 g ai/ha
  % Visual Control 48 DAA CAPBP: 96.7%
[11]; 5 g ai/ha
  % Visual Control 48 DAA AMSIN: 0%
[11]; 10 g ai/ha
  % Visual Control 48 DAA AMSIN: 33.3%
[11]; 20 g ai/ha
  % Visual Control 48 DAA AMSIN: 40%
[11]; 40 g ai/ha
  % Visual Control 48 DAA AMSIN: 87.3%
[11]; 50 g ai/ha
  % Visual Control 48 DAA AMSIN: 84.3%
[12]; 5 g ai/ha
  % Visual Control 48 DAA CLNCM: 0%
[12]; 10 g ai/ha
  % Visual Control 48 DAA CLNCM: 40%
[12]; 20 g ai/ha
  % Visual Control 48 DAA CLNCM: 56.7%
[12]; 40 g ai/ha
  % Visual Control 48 DAA CLNCM: 90%
[12]; 50 g ai/ha
  % Visual Control 48 DAA CLNCM: 96.7%

## O=C(O)CNCP(=O)(O)O [Glyphosate, glyphosate, reference compound]
[1]; 1680 g ae/ha
  % Visual Control 57 DAA CAPBP: 99.3%
[2]; 1680 g ae/ha
  % Visual Control 57 DAA AMSIN: 100%
[3]; 1680 g ae/ha
  % Visual Control 57 DAA IPOSS: 51.7%
[4]; 1680 g ae/ha
  % Visual Control 57 DAA CHEAL: 95%
[5]; 1680 g ae/ha
  % Visual Control 57 DAA AMARE: 0%
[6]; 1680 g ae/ha
  % Visual Control 59 DAA MEDPO: 100%
[7]; 1680 g ae/ha
  % Visual Control 59 DAA EROCI: 91%
[8]; 1680 g ae/ha
  % Visual Control 59 DAA STEME: 93.3%
[9]; 1680 g ae/ha
  % Visual Control 59 DAA MALPA: 86.7%
[10]; 1680 g ae/ha
  % Visual Control 48 DAA CAPBP: 0%
[11]; 1680 g ae/ha
  % Visual Control 48 DAA AMSIN: 0%
[12]; 1680 g ae/ha
  % Visual Control 48 DAA CLNCM: 0%

## COc1c(Cl)ccc(-c2cc(N)c(Cl)c(C(=O)O)n2)c1F [Compound I, 4-amino-3-chloro-6-(4-chloro-2-fluoro-3-methoxyphenyl)pyridine-2-carboxylic acid]
[13]
  crop injury to grapevines and perennial crops: little to no crop injury
[14]
  efficacy on commercially relevant broadleaf and grass weeds: highly efficacious
